Results from patent publication US20100119483A1, “PEPTIDE VIRAL ENTRY INHIBITORS” (Schering Corporation, priority 2004, published 2010).
“And” between values parts separate entries of the source, which are not always exact repeats. Identical values can stand only once.

Legend:
HCV pseudoparticles = experiment: HCV pseudoparticle (HCVpp) entry assay in Huh7 hepatoma cells, luciferase readout; assay type: cell-based, hepatitis C virus; details: for luciferase units, HCV entry: duplicates; for % of control at ~30 uM: percentage of hepatitis C virus cellular entry at 30 μM peptide vs uninhibited control; for HCVpp % inh: peptide library screen, first screened at 100 ug/ml, cell entry inhibition vs uninhibited control
Outline: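 Pseudoparticles carrying HCV E1/E2 on an HIV luciferase backbone were produced in 293T cells; peptide was pre-incubated 1 h at 37 °C with Huh7 cells, then virus added and luciferase read after 72 h. Dose-response used 10-point 3-fold titration from 100 ug/ml; envelope-less particles controlled non-specific entry.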

[1] = system: amphotropic murine leukemia virus; experiment: AMLV pseudotyped virus entry counter-screen, same infection protocol; assay type: cell-based; details: for luciferase units, AMLV entry: duplicates; for AMLVpp % inh: peptide library screen, cell entry inhibition vs uninhibited control
Protocol: Infection of hepatoma cell lines with HCV pseudotype particles and screen for inhibitory peptides. The hepatoma cells, Huh7, was seeded at 8000 cells in 90 ul medium in 96-well plate. In the case of the inhibitor screen, the inhibitor was incubated with cells for one hour at 37° C. and then 50 ul viral supernatant was added to the cells 24 hours after seeding. The viral stock was pre-tittered and diluted to yield approximately 10,000 to 20,000 RLU. The cells were incubated at 37° C. with 5% CO2 for additional 72 hours and were harvested for luciferase assay. Peptide stocks were prepared in 100% DMSO at 10 mg/ml and were first screened at 100 ug/ml and then a dose responsive curve was generated with 10 points 3-fold titration starting from 100 ug/ml.
The specificity of the peptides were counter-screened with AMLV and HIV pseudotyped viruses using the same infection protocol.

[2] = 0.1 nM of peptide (printed for three rows), two values per peptide and row
[3] = 0.3 nM of peptide, two values per peptide
[4] = 1 nM of peptide, two values per peptide
[5] = 3 nM of peptide, two values per peptide
[6] = 10 nM of peptide, two values per peptide
[7] = 30 nM of peptide, two values per peptide
[8] = 100 nM of peptide, two values per peptide
[9] = 300 nM of peptide, two values per peptide
[10] = 10000 nM of peptide, two values per peptide
[11] = 30000 nM of peptide, two values per peptide
[12] = 0.01371742 uM of peptide (three lines)

Substance: A-I-K-W-E-Y-V-L-L-L-F-L-L [SEQ ID NO: 85]
- % control (HCVpp entry), alanine scanning (HCV pseudoparticles; [2]): 79 % control and 81 % control and 101 % control and 74 % control and 113 % control and 112 % control
- % control (HCVpp entry), alanine scanning (HCV pseudoparticles; [3]): 79 % control and 96 % control
- % control (HCVpp entry), alanine scanning (HCV pseudoparticles; [4]): 95 % control and 83 % control
- % control (HCVpp entry), alanine scanning (HCV pseudoparticles; [5]): 71 % control and 88 % control
- % control (HCVpp entry), alanine scanning (HCV pseudoparticles; [6]): 90 % control and 107 % control
- % control (HCVpp entry), alanine scanning (HCV pseudoparticles; [7]): 62 % control and 57 % control
- luciferase units, HCV entry (HCV pseudoparticles; 0.04115226 uM of peptide): 7203 luciferase units and 6444 luciferase units
- % control (HCVpp entry), alanine scanning (HCV pseudoparticles; [8]): 45 % control and 50 % control
- % control (HCVpp entry), alanine scanning (HCV pseudoparticles; [9]): 18 % control and 22 % control
- luciferase units, HCV entry (HCV pseudoparticles; 0.3703704 uM of peptide): 3658 luciferase units and 3430 luciferase units
- luciferase units, HCV entry (HCV pseudoparticles; 1.111111 uM of peptide): 4380 luciferase units and 2918 luciferase units
- luciferase units, HCV entry (HCV pseudoparticles; 3.333333 uM of peptide): 2239 luciferase units and 2490 luciferase units
- luciferase units, HCV entry (HCV pseudoparticles; 10 uM of peptide): 3393 luciferase units and 2865 luciferase units
- % control (HCVpp entry), alanine scanning (HCV pseudoparticles; [10]): 13 % control and 18 % control
- % control (HCVpp entry), alanine scanning (HCV pseudoparticles; [11]): 70 % control and 103 % control
- % of control at ~30 uM (HCV pseudoparticles): 20%
- luciferase units, AMLV entry [1, 12]: 55532 luciferase units and 43767 luciferase units and 32138 luciferase units and 44812 luciferase units and 41172 luciferase units and 40068 luciferase units
- luciferase units, AMLV entry ([1]; 0.04115226 uM of peptide): 32390 luciferase units and 42604 luciferase units
- luciferase units, AMLV entry ([1]; 0.1234568 uM of peptide): 41483 luciferase units and 44739 luciferase units
- luciferase units, AMLV entry ([1]; 0.3703704 uM of peptide): 44659 luciferase units and 43073 luciferase units
- luciferase units, AMLV entry ([1]; 1.111111 uM of peptide): 42996 luciferase units and 48628 luciferase units
- luciferase units, AMLV entry ([1]; 3.333333 uM of peptide): 92146 luciferase units and 118949 luciferase units
- luciferase units, AMLV entry ([1]; 10 uM of peptide): 129890 luciferase units and 172763 luciferase units
- luciferase units, AMLV entry ([1]; 30 uM of peptide): 72040 luciferase units and 83257 luciferase units

Substance: A-I-K-W-E-Y-V-L-L-L-F-L-L [SEQ ID NO: 86]
- % control (HCVpp entry), alanine scanning (HCV pseudoparticles; [2]): 86 % control and 90 % control and 87 % control and 103 % control and 108 % control
- % control (HCVpp entry), alanine scanning (HCV pseudoparticles; [3]): 96 % control and 133 % control
- % control (HCVpp entry), alanine scanning (HCV pseudoparticles; [4]): 80 % control and 102 % control
- % control (HCVpp entry), alanine scanning (HCV pseudoparticles; [5]): 90 % control and 118 % control
- % control (HCVpp entry), alanine scanning (HCV pseudoparticles; [6]): 69 % control and 67 % control
- luciferase units, HCV entry (HCV pseudoparticles; [12]): 10981 luciferase units and 12701 luciferase units and 17159 luciferase units and 18427 luciferase units and 19121 luciferase units and 16287 luciferase units
- % control (HCVpp entry), alanine scanning (HCV pseudoparticles; [7]): 59 % control and 60 % control
- luciferase units, HCV entry (HCV pseudoparticles; 0.04115226 uM of peptide): 8349 luciferase units and 8612 luciferase units
- % control (HCVpp entry), alanine scanning (HCV pseudoparticles; [8]): 48 % control and 33 % control
- luciferase units, HCV entry (HCV pseudoparticles; 0.1234568 uM of peptide): 6445 luciferase units and 3869 luciferase units
- % control (HCVpp entry), alanine scanning (HCV pseudoparticles; [9]): 25 % control and 30 % control
- luciferase units, HCV entry (HCV pseudoparticles; 0.3703704 uM of peptide): 5748 luciferase units and 3127 luciferase units
- luciferase units, HCV entry (HCV pseudoparticles; 1.111111 uM of peptide): 3652 luciferase units and 3574 luciferase units
- luciferase units, HCV entry (HCV pseudoparticles; 3.333333 uM of peptide): 2746 luciferase units and 2356 luciferase units
- % control (HCVpp entry), alanine scanning (HCV pseudoparticles; [10]): 27 % control and 25 % control
- luciferase units, HCV entry (HCV pseudoparticles; 30 uM of peptide): 1899 luciferase units and 1645 luciferase units
- % control (HCVpp entry), alanine scanning (HCV pseudoparticles; [11]): 15 % control and 27 % control
- % of control at ~30 uM (HCV pseudoparticles): 13%
- luciferase units, AMLV entry [1, 12]: 42295 luciferase units and 44556 luciferase units and 43059 luciferase units and 48854 luciferase units and 37783 luciferase units and 49462 luciferase units
- luciferase units, AMLV entry ([1]; 0.04115226 uM of peptide): 42084 luciferase units and 47952 luciferase units
- luciferase units, AMLV entry ([1]; 0.1234568 uM of peptide): 37163 luciferase units and 47412 luciferase units
- luciferase units, AMLV entry ([1]; 0.3703704 uM of peptide): 43543 luciferase units and 47987 luciferase units
- luciferase units, AMLV entry ([1]; 1.111111 uM of peptide): 40296 luciferase units and 43593 luciferase units
- luciferase units, AMLV entry ([1]; 3.333333 uM of peptide): 53350 luciferase units and 39047 luciferase units
- luciferase units, AMLV entry ([1]; 10 uM of peptide): 70573 luciferase units and 72462 luciferase units
- luciferase units, AMLV entry ([1]; 30 uM of peptide): 76174 luciferase units and 71333 luciferase units

Substance: A-I-K-W-E-Y-V-L-L-L-F-L-L [SEQ ID NO: 100]
- % control (HCVpp entry), lysine scanning (HCV pseudoparticles; [2]): 110 % control and 85 % control and 115 % control and 83 % control and 92 % control and 111 % control
- % control (HCVpp entry), lysine scanning (HCV pseudoparticles; [3]): 88 % control and 75 % control
- % control (HCVpp entry), lysine scanning (HCV pseudoparticles; [4]): 76 % control and 68 % control
- % control (HCVpp entry), lysine scanning (HCV pseudoparticles; [5]): 61 % control and 83 % control
- % control (HCVpp entry), lysine scanning (HCV pseudoparticles; [6]): 62 % control and 58 % control
- luciferase units, HCV entry (HCV pseudoparticles; [12]): 9526 luciferase units and 11368 luciferase units and 13637 luciferase units and 13231 luciferase units and 14358 luciferase units and 15831 luciferase units
- % control (HCVpp entry), lysine scanning (HCV pseudoparticles; [7]): 53 % control and 44 % control
- luciferase units, HCV entry (HCV pseudoparticles; 0.04115226 uM of peptide): 7066 luciferase units and 7585 luciferase units
- % control (HCVpp entry), lysine scanning (HCV pseudoparticles; [8]): 31 % control and 19 % control
- luciferase units, HCV entry (HCV pseudoparticles; 0.1234568 uM of peptide): 4241 luciferase units and 3590 luciferase units
- % control (HCVpp entry), lysine scanning (HCV pseudoparticles; [9]): 32 % control and 29 % control
- luciferase units, HCV entry (HCV pseudoparticles; 0.3703704 uM of peptide): 4161 luciferase units and 2767 luciferase units
- luciferase units, HCV entry (HCV pseudoparticles; 1.111111 uM of peptide): 3041 luciferase units and 2870 luciferase units
- luciferase units, HCV entry (HCV pseudoparticles; 3.333333 uM of peptide): 4131 luciferase units and 3158 luciferase units
- luciferase units, HCV entry (HCV pseudoparticles; 10 uM of peptide): 1538 luciferase units and 1360 luciferase units
- luciferase units, HCV entry (HCV pseudoparticles; 30 uM of peptide): 1262 luciferase units and 1073 luciferase units
- % of control at ~30 uM (HCV pseudoparticles): 6%
- luciferase units, AMLV entry ([1]; 0.04115226 uM of peptide): 39784 luciferase units and 45324 luciferase units
- luciferase units, AMLV entry ([1]; 0.1234568 uM of peptide): 46954 luciferase units and 44234 luciferase units
- luciferase units, AMLV entry ([1]; 0.3703704 uM of peptide): 42008 luciferase units and 39907 luciferase units
- luciferase units, AMLV entry ([1]; 1.111111 uM of peptide): 45723 luciferase units and 43633 luciferase units
- luciferase units, AMLV entry ([1]; 3.333333 uM of peptide): 70934 luciferase units and 59407 luciferase units
- luciferase units, AMLV entry ([1]; 10 uM of peptide): 135633 luciferase units and 74847 luciferase units
- luciferase units, AMLV entry ([1]; 30 uM of peptide): 76883 luciferase units and 56072 luciferase units

Substance: A-L-T-P-T-L-A-A-R-N-A-S-V-P-T-T [SEQ ID NO: 10]
- HCVpp % inh (HCV pseudoparticles): 53%
- AMLVpp % inh [1]: 1%

Substance: A-Q-V-C-G-P-V-Y-C-F-T-P-S-P-V-V [SEQ ID NO: 47]
- HCVpp % inh (HCV pseudoparticles): 40%
- AMLVpp % inh [1]: −8%

Substance: A-R-N-A-S-V-P-T-T-T-I-R-R-H-V-D [SEQ ID NO: 11]
- HCVpp % inh (HCV pseudoparticles): −26%
- AMLVpp % inh [1]: 24%

Substance: A-Y-Y-S-W-V-G-N-W-A-K-V-L-I-V-M [SEQ ID NO: 27]
- HCVpp % inh (HCV pseudoparticles): 39%
- AMLVpp % inh [1]: −2%

Substance: C-N-C-S-I-Y-P-G-H-V-T-G-H-R-M-A [SEQ ID NO: 19]
- HCVpp % inh (HCV pseudoparticles): 49%
- AMLVpp % inh [1]: 26%

Substance: C-W-H-Y-A-P-R-P-C-G-I-V-P-A-A-Q [SEQ ID NO: 45]
- HCVpp % inh (HCV pseudoparticles): 63%
- AMLVpp % inh [1]: −8%

Substance: D-C-F-R-K-H-P-E-A-T-Y-T-K-C-G-S [SEQ ID NO: 59]
- HCVpp % inh (HCV pseudoparticles): 26%
- AMLVpp % inh [1]: −14%

Substance: D-C-S-N-A-S-I-V-Y-E-A-A-D-M-I-M [SEQ ID NO: 5]
- HCVpp % inh (HCV pseudoparticles): −4%
- AMLVpp % inh [1]: −2%

Substance: D-M-V-A-G-A-H-W-G-V-L-A-G-L-A-Y [SEQ ID NO: 25]
- HCVpp % inh (HCV pseudoparticles): 27%
- AMLVpp % inh [1]: 14%

Substance: D-V-L-L-L-N-N-T-R-P-P-Q-G-N-W-F [SEQ ID NO: 52]
- HCVpp % inh (HCV pseudoparticles): 10%
- AMLVpp % inh [1]: 16%

Substance: E-A-T-Y-T-K-C-G-S-G-P-W-L-T-P-R (EATYTKCGSGPWLTPR; HCV peptide) [SEQ ID NO: 60]
- HCVpp % inh (HCV pseudoparticles): 13%
- AMLVpp % inh [1]: 17%

Substance: E-L-S-P-L-L-L-S-T-T-E-W-Q-V-L-P [SEQ ID NO: 70]
- HCVpp % inh (HCV pseudoparticles): 10%
- AMLVpp % inh [1]: 44%
